Results: PubChem BioAssay (NCI)
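Test compounds were applied to cells in 96-well plates for 48 hours at 5 doses. TGI marks complete inhibition of growth.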

Key:
Assay in all cases: NCI tumour cell line growth inhibition, 48 h
[1] = tested on: 786-0 renal
[2] = tested on: A498 renal
[3] = tested on: A549 NSCLC
[4] = tested on: ACHN renal
[5] = tested on: CAKI-1 renal
[6] = tested on: CCRF-CEM leukemia
[7] = tested on: COLO 205 colon
[8] = tested on: DLD-1 colon
[9] = tested on: DMS 114 small cell lung
[10] = tested on: DMS 273 small cell lung
[11] = tested on: EKVX NSCLC
[12] = tested on: HCT-116 colon
[13] = tested on: HCT-15 colon
[14] = tested on: HL-60(TB) leukemia
[15] = tested on: HOP-18 NSCLC
[16] = tested on: HOP-92 NSCLC
[17] = tested on: HT29 colon
[18] = tested on: IGROV1 ovarian
[19] = tested on: K-562 leukemia
[20] = tested on: KM20L2 colon
[21] = tested on: LOX IMVI melanoma
[22] = tested on: LXFL 529 NSCLC
[23] = tested on: M14 melanoma
[24] = tested on: M19-MEL melanoma
[25] = tested on: MOLT-4 leukemia
[26] = tested on: NCI-H23 lung
[27] = tested on: NCI-H460 lung
[28] = tested on: NCI-H522 lung
[29] = tested on: OVCAR-8 ovarian
[30] = tested on: RPMI-8226 leukemia
[31] = tested on: RXF 393 renal
[32] = tested on: RXF-631 renal
[33] = tested on: SF-268 CNS
[34] = tested on: SF-295 CNS
[35] = tested on: SF-539 CNS
[36] = tested on: SK-MEL-28 melanoma
[37] = tested on: SK-MEL-5 melanoma
[38] = tested on: SK-OV-3 ovarian
[39] = tested on: SN12C renal
[40] = tested on: SNB-19 CNS
[41] = tested on: SW-620 colon
[42] = tested on: TK-10 renal
[43] = tested on: U251 CNS
[44] = tested on: UACC-62 melanoma
[45] = tested on: UO-31 renal
[46] = tested on: XF 498 CNS
[47] = tested on: HCC-2998 colon
[48] = tested on: HOP-62 NSCLC
[49] = tested on: KM12 colon
[50] = tested on: MALME-3M melanoma
[51] = tested on: NCI-H226 lung
[52] = tested on: OVCAR-3 ovarian
[53] = tested on: OVCAR-4 ovarian
[54] = tested on: OVCAR-5 ovarian
[55] = tested on: SK-MEL-2 melanoma
[56] = tested on: SNB-75 CNS
[57] = tested on: SNB-78 CNS
[58] = tested on: SR leukemia
[59] = tested on: UACC-257 melanoma

`COc1ccc(/C=C/C(=O)c2c(-c3ccccc3)nn(C)c(=O)c2N2CCOCC2)cc1` showed a TGI [1] of over 100 µM, a TGI [2] of over 100 µM and a TGI [3] of over 100 µM. For the same compound, the TGI [4] was over 100 µM, the TGI [5] was over 100 µM and the TGI [6] was over 100 µM. It also gave a TGI [7] of over 100 µM, a TGI [8] of over 100 µM and a TGI [9] of over 100 µM. It also gave a TGI [10] of over 100 µM, a TGI [11] of over 100 µM and a TGI [12] of over 100 µM. It also gave a TGI [13] of over 100 µM, a TGI [14] of 60.6 µM and a TGI [15] of over 100 µM. It also gave a TGI [16] of over 100 µM, a TGI [17] of over 100 µM and a TGI [18] of over 100 µM. The TGI [19] was over 100 µM, the TGI [20] was over 100 µM and the TGI [21] was over 100 µM. For the same compound, the TGI [22] was over 100 µM, the TGI [23] was over 100 µM and the TGI [24] was over 100 µM. The TGI [25] was over 100 µM, the TGI [26] was over 100 µM and the TGI [27] was over 100 µM. For the same compound, the TGI [28] was over 100 µM, the TGI [29] was over 100 µM and the TGI [30] was over 100 µM. For the same compound, the TGI [31] was over 100 µM, the TGI [32] was over 100 µM and the TGI [33] was over 100 µM. For the same compound, the TGI [34] was over 100 µM, the TGI [35] was over 100 µM and the TGI [36] was over 100 µM. The TGI [37] was over 100 µM, the TGI [38] was over 100 µM and the TGI [39] was over 100 µM. The TGI [40] was over 100 µM, the TGI [41] was over 100 µM and the TGI [42] was over 100 µM. The TGI [43] was over 100 µM, the TGI [44] was over 100 µM and the TGI [45] was over 100 µM. For the same compound, the TGI [46] was 83.9 µM.

For `CC(C)OC/N=C(/N)NC#N`, the TGI [1] was over 100 µM, the TGI [2] was over 100 µM and the TGI [3] was over 100 µM. For the same compound, the TGI [4] was over 100 µM, the TGI [5] was over 100 µM and the TGI [7] was over 100 µM. For the same compound, the TGI [8] was over 100 µM, the TGI [9] was over 100 µM and the TGI [10] was over 100 µM. For the same compound, the TGI [11] was over 100 µM, the TGI [47] was over 100 µM and the TGI [12] was over 100 µM. The TGI [13] was 33.7 µM, the TGI [14] was over 100 µM and the TGI [15] was over 100 µM. It also gave a TGI [48] of over 100 µM, a TGI [16] of over 100 µM and a TGI [17] of over 100 µM. For the same compound, the TGI [18] was over 100 µM, the TGI [19] was over 100 µM and the TGI [49] was over 100 µM. It also gave a TGI [20] of over 100 µM, a TGI [21] of 43.7 µM and a TGI [22] of over 100 µM. The TGI [23] was over 100 µM, the TGI [24] was over 100 µM and the TGI [50] was over 100 µM. The TGI [25] was over 100 µM, the TGI [51] was over 100 µM and the TGI [26] was over 100 µM. It also gave a TGI [27] of over 100 µM, a TGI [28] of over 100 µM and a TGI [52] of over 100 µM. It also gave a TGI [53] of over 100 µM, a TGI [54] of over 100 µM and a TGI [29] of over 100 µM. The TGI [30] was 61.2 µM, the TGI [31] was over 100 µM and the TGI [32] was over 100 µM. It also gave a TGI [33] of over 100 µM, a TGI [34] of over 100 µM and a TGI [35] of over 100 µM. For the same compound, the TGI [55] was over 100 µM, the TGI [36] was over 100 µM and the TGI [37] was over 100 µM. The TGI [38] was over 100 µM, the TGI [39] was over 100 µM and the TGI [40] was over 100 µM. It also gave a TGI [56] of over 100 µM, a TGI [57] of over 100 µM and a TGI [58] of 49.6 µM. For the same compound, the TGI [41] was 45.2 µM, the TGI [42] was over 100 µM and the TGI [43] was over 100 µM. The TGI [59] was over 100 µM, the TGI [44] was over 100 µM and the TGI [45] was over 100 µM. It also gave a TGI [46] of over 100 µM.
